Measured values published in patent US20250011722A1, “HEPATIC ORGANOIDS” (Koninklijke Nederlandse Akademie van Wetenschappen, priority 2021, published 2025).
Entries after “also recorded” stand apart in the source; their conditions may differ.

Assays:
Assay type in all cases: cell-based, human
MTTP^−/− organoids = assay: anti-NAFLD drug screening, Nile Red lipid staining and lipid score; conditions: MTTP^−/− organoids exposed to drugs for 7 days
Experimental: (§1) Compound stocks of all drugs were made in DMSO, except for recombinant hFGF19 and hFGF21 which were reconstituted in AdvDMEM+++. Drugs were dissolved in HEP medium with a maximum final concentration of 0.2% DMSO. The drug panel, their targets, and concentrations tested are described in Table 2.
(§2) APOB^−/− and MTTP^−/− organoids were exposed to the drugs or vehicle in 24-well plates for 7 days with 2 medium changes. Wild type organoids were first made steatotic by pre-incubation with 500 μM FFAs (oleic acid and palmitic acid, 1:1 ratio) for 2 days. Then, FFA-loaded organoids were treated with the different drugs, still in the presence of FFA, for 7 days with 2 medium changes. All organoids were harvested for subsequent lipid staining and lipid scoring as described below. Drug effects were evaluated by observing the lipid droplet fluorescence characteristics within all organoids within the whole well. Quantitative analyses were performed in representative organoids (n≥3) per drug concentration per steatosis organoid model. Drug effects were validated in at least two independent experiments. For drug screening in PLIN2::tdTomato reporter organoids, the organoids were plated in 96-well black plates and treated with the indicated drugs. Pictures were taken over a 7-day time course using the EVOS FL Auto Imaging System. Images and fluorescence quantifications are representative of two independent experiments.
(§3) Organoids were carefully harvested in cold AdvDMEM+++ and washed once with cold AdvDMEM+++ using low-speed centrifugations. Organoids were fixed in 4% formaldehyde at RT for 30 min-1 hour. For lipid stainings, organoids were washed twice with PBS, and incubated with Nile Red (1 μg/μl) and DAPI (1 μg/μl) for 20 min at RT. Organoids were washed twice with PBS, and transferred in 100 μl PBS to a well of a 96-well black SensoPlate for imaging analysis. […] Organoids were washed once with 0.5% BSA-PBS and subsequently incubated with primary antibodies in 2.5% BSA-PBS O/N at 4° C. After 3 washes with 0.5% BSA-PBS, organoids were incubated with secondary antibodies in 2.5% BSA-PBS for 2-4 hours at RT. Organoids were washed once with 0.5% BSA-PBS, after which they were incubated with DAPI (1 μg/μl) in 0.5% BSA-PBS for 20 min at RT, and washed once more with 0.5% BSA-PBS. Organoids were then transferred in 100 μl 0.5% BSA-PBS to a well of a 96-well black SensoPlate.
(§4) Stained organoids were imaged on a Leica Sp8 confocal. Fluorescent images were processed using Photoshop CS4 or ImageJ software. The lipid score was calculated using Fiji software. The lipid score is defined by integrating the lipid droplet fluorescence and lipid droplet area coverage as follows: a fluorescence threshold derived from the lipid droplet signal is determined on Z-projected images to convert them into binary images. The region of interest (ROI) (organoid surface area) is defined based on fluorescence signal from the counterstained DAPI^+ nuclei. Then, particle measurement analysis is performed to define the fluorescence area covered within the defined ROI. The lipid score represents a normalized score of the resulting data on a linear 0 to 1 scale, where the mean calculated values from wild type organoids are arbitrarily set to 0, while the mean calculated values from either vehicle-treated APOB^−/− or MTTP^−/− organoids or vehicle-treated FFA-loaded organoids are set to 1, allowing scoring of drug effectiveness within these boundaries. Quantification of the amount of lipid droplets was performed manually by counting droplets within a given ROI (organoid surface area). The lipid droplet area coverage is determined identical to the lipid score without the final normalization steps.

APOB^−/− organoids [1] = assay: as above; conditions: APOB^−/− organoids exposed to drugs for 7 days
Experimental: as §1, §2, §3, §4

[2] = tested on: PLIN2::tdTomato; MTTP^−/− reporter organoids; assay: drug screening in PLIN2 reporter organoids, fluorescence read-out; conditions: PLIN2-tagged reporter organoids, ACCi or vehicle for 5 days
Description: PLIN2 reporter lines in the background of APOB^−/− or MTTP^−/− organoids were generated using CRISPR-HOT as described previously (Artegiani et al., 2020; Hendriks et al., 2021). Briefly, the transfection mixture consisted of a sgRNA targeting the C-terminus of PLIN2, a plasmid providing both Cas9 and a non-human sgRNA targeting the donor plasmid (Addgene #66940), and a donor plasmid encoding either tdTomato (Addgene #138567) or mNeon (a gift from V. Hornung). Upon transfection, the sgRNA targeting the donor plasmid linearizes the donor plasmid to facilitate NHEJ-mediated in-frame gene knock-in of the fluorescent tag into the PLIN2 C-terminus. Upon outgrowth of transfected organoids, fluorescent organoids became apparent. A bulk PLIN2-tagged fluorescence-pure culture was established by sorting single fluorescence-positive cells by FACS. Genotyping was performed to confirm precise gene knock-in.
APOB^−/− and MTTP^−/− organoids were exposed to the drugs or vehicle in 24-well plates for 7 days with 2 medium changes. […] Drug effects were evaluated by observing the lipid droplet fluorescence characteristics within all organoids within the whole well. Quantitative analyses were performed in representative organoids (n≥3) per drug concentration per steatosis organoid model. […] Images and fluorescence quantifications are representative of two independent experiments.

[3] = tested on: FFA-loaded wild type organoids; assay: anti-NAFLD drug screening, Nile Red lipid staining and lipid score; conditions: wild type organoids pre-incubated with 500 μM FFAs 2 days, then drugs 7 days in presence of FFA
Experimental: Wild type human hepatocyte organoids were made steatotic by providing a concentrated mixture of exogenous FFAs (oleic acid (18:1) and palmitic acid (16:0), ratio 1:1) in the culture medium. The FFAs were dissolved in ethanol and thereafter conjugated to bovine serum albumin. Prior to fat loading, organoids were plated into small BME droplets (15 μl/drop) to facilitate FFA penetration. Total concentrations of FFA were 640 μM for transcriptomic analyses to mimic the level of steatosis observed in APOB^−/− or MTTP^−/− organoids.
as §1
as §2, with “experiments. […]” for “experiments. For drug screening in PLIN2::tdTomato reporter organoids, the organoids were plated in 96-well black plates and treated with the indicated drugs. Pictures were taken over a 7-day time course using the EVOS FL Auto Imaging System.”, “experiments. […]” for “experiments.”
as §4, with “Fluorescent images were processed using Photoshop CS4 or ImageJ software.” left out, “Quantification of the amount of lipid droplets was performed manually by counting droplets within a given ROI (organoid surface area). The lipid droplet area coverage is determined identical to the lipid score without the final normalization steps.” left out

APOB^−/− organoids [4] = assay: bulk RNA-sequencing of drug-treated organoids
Experimental: Organoids from 1 well of a 12-well plate were harvested and washed in cold AdvDMEM+++. Organoid pellets were lysed in 1 ml TRIzol Reagent and subsequently snap-frozen in liquid nitrogen. RNA was extracted according to the manufacturer's protocol. RNA integrity was measured using the Agilent RNA 6000 Nano kit with the Agilent 2100 Bioanalyzer and RNA concentrations were determined using the Qubit RNA HS Assay Kit. RNA integrity number (RIN) values of RNA samples were typically 9.5-10 and never below 9.0. RNA libraries were prepared TruSeq Stranded mRNA polyA kit and single-end (1×75 bp) sequenced on an Illumina Nextseq 2000 or Nextseq 500. Reads were mapped to the human GRCh38 genome assembly. Differential gene expression analysis was performed using the DESeq2 package (Love et al., 2014) in RStudio. Considered log 2 fold changes and significance (p-values) are indicated throughout the paper. Data visualization was obtained using the ggplot2, ComplexHeatmap, and EnhancedVolcano packages in RStudio or manually plotted using GraphPad Prism 8.

COc1ccccc1[C@H](Cn1c(=O)n(C(C)(C)C(=O)O)c(=O)c2c(C)c(-c3ncco3)sc21)OC1CCOCC1 [ACCi, Firsocostat]
steatosis phenotype (lipid staining, lipid score) (MTTP^−/− organoids): Effective
steatosis phenotype (lipid staining, lipid score) (APOB^−/− organoids [1]): Effective
endogenous fluorescent signal of PLIN2 reporter [2]: reduced the endogenous fluorescent signal
steatosis phenotype (lipid staining, lipid score) [3]: Effective
expression of genes important for cell proliferation and DNA synthesis (APOB^−/− organoids [4]): downregulation
expression of key genes involved in glycolysis (ALDOB, HK2, ENO2, PFKFB3/4) (APOB^−/− organoids [4]): downregulated
expression of lipogenic genes (ACACA, FASN, SREBF1, etc.) (APOB^−/− organoids [4]): increased expression

CS(=O)(=O)O.O=C([C@@H]1CCCN(c2ccc3[nH]c(C4(n5cc(Cl)cn5)CC4)nc3n2)C1)N1CCCC1 [DGAT2i, PF06424439]
steatosis phenotype (lipid staining, lipid score) (MTTP^−/− organoids): Effective
steatosis phenotype (lipid staining, lipid score) (APOB^−/− organoids [1]): Effective
steatosis phenotype (lipid staining, lipid score) [3]: Effective
transcriptomic changes versus vehicle-treated organoids (APOB^−/− organoids [4]): transcriptomically identical to vehicle-treated organoids; also recorded: very few transcriptomic changes

O=C(Nc1ccc2[nH]nc(-c3ccncc3)c2c1)[C@@H]1CCN(CC(=O)N2CCN(c3ccc(-c4ncccn4)cc3)CC2)C1 [ERKi, SCH772984]
steatosis phenotype (lipid staining, lipid score) (MTTP^−/− organoids): did not alter the steatosis phenotype
steatosis phenotype (lipid staining, lipid score) (APOB^−/− organoids [1]): did not alter the steatosis phenotype

Cc1nnc(-c2cc(C(=O)N3CCC(c4ccc(C#N)cc4)CC3)c(C)cc2C2CCC2)[nH]1 [FASi, TVB2640]
steatosis phenotype (lipid staining, lipid score) (MTTP^−/− organoids): Effective
steatosis phenotype (lipid staining, lipid score) (APOB^−/− organoids [1]): Effective
steatosis phenotype (lipid staining, lipid score) [3]: Effective
expression of genes important for cell proliferation and DNA synthesis (APOB^−/− organoids [4]): downregulation
expression of key genes involved in glycolysis (ALDOB, HK2, ENO2, PFKFB3/4) (APOB^−/− organoids [4]): downregulated
expression of lipogenic genes (ACACA, FASN, SREBF1, etc.) (APOB^−/− organoids [4]): increased expression

O=C(O)c1ccnc(N2CC(O)(c3ccc(OCc4c(-c5c(Cl)cccc5Cl)noc4C4CC4)cc3Cl)C2)c1 [FXRa, Cilofexor]
FGF19 expression (APOB^−/− organoids [4]): strongly upregulated
expression of FXR target genes CYP7A1 and CYP27A1 (APOB^−/− organoids [4]): downregulation
expression of NR0B2 (SHP) (APOB^−/− organoids [4]): induction
expression of de novo lipogenesis-related genes, including DGAT2, ACSS2, and GPAM (APOB^−/− organoids [4]): repress
expression of key hepatocyte markers (ALB, TTR) (APOB^−/− organoids [4]): downregulation
expression of transporters such as BSEP (ABCB11) (APOB^−/− organoids [4]): induction
genes of TGFβ regulation of extracellular matrix (APOB^−/− organoids [4]): gene induction patterns suggestive of TGFβ-related extracellular matrix remodeling

Oc1ccc(-c2nc(-c3ccncc3)c(-c3ccc(F)cc3)[nH]2)cc1 [p38i, SB202190]
steatosis phenotype (lipid staining, lipid score) (MTTP^−/− organoids): reduced the steatosis phenotype
steatosis phenotype (lipid staining, lipid score) (APOB^−/− organoids [1]): reduced the steatosis phenotype

hFGF19: recombinant human FGF19, activates β-Klotho/FGFRs
steatosis phenotype (lipid staining, lipid score) (MTTP^−/− organoids): marked steatosis-reducing effects
steatosis phenotype (lipid staining, lipid score) (APOB^−/− organoids [1]): marked steatosis-reducing effects
steatosis phenotype (lipid staining, lipid score) [3]: marked steatosis-reducing effects
expression of FXR target genes CYP7A1 and CYP27A1 (APOB^−/− organoids [4]): downregulation
expression of NR0B2 (SHP) (APOB^−/− organoids [4]): induction
expression of de novo lipogenesis-related genes, including DGAT2, ACSS2, and GPAM (APOB^−/− organoids [4]): repress
expression of key hepatocyte markers (ALB, TTR) (APOB^−/− organoids [4]): downregulation
genes of TGFβ regulation of extracellular matrix (APOB^−/− organoids [4]): gene induction patterns suggestive of TGFβ-related extracellular matrix remodeling
